# In publication PMC6685951, “Migration of Bacteriocins Across Gastrointestinal Epithelial and Vascular Endothelial Cells, as Determined Using In Vitro Simulations” (Scientific Reports, 2019):
# Where a SMILES comes first, the peptide text is derived from it. Bridges are numbered along the chain shown (N, C = ends).
# Legend:
# Caco-2 cells [1] = experiment: Neutral red viability assay, Caco-2; assay type: cell-based, human; conditions: 24 h, 37 °C
# Experimental: (§1) For viability and cytotoxicity studies, cells were seeded in 96-well flat-bottom culture plates (1 × 10^4 cells/well). To determine migration of nisin A, plantaricin 423 and bacST4SA across the gastrointestinal epithelial and vascular endothelial barriers, HUVEC and Caco-2 cells were grown on an 8 µm pore size tissue culture insert, as shown in Fig. 1. All cell culture experiments were done in triplicate and have been repeated more than three times.
# (§2) Cells were treated with different concentrations of the peptides as described for the XTT assay. Sterile ultrapure water was used as control. After incubation at 37 °C for 24 h, neutral red solution was added to the cells (10% of the culture volume). After 4 h of incubation at 37 °C, the medium was removed by aspiration and the cells were rinsed with neutral red fixative. The fixative was removed, the dye solubilized by adding […] and the cells were gently stirred for 10 min on a gyratory shaker. Absorbance readings were recorded at 540 nm and 690 nm, respectively, using a microtiter plate reader. The percentage viability was calculated as the absorbance of treated cells divided by the absorbance of untreated cells (AT/AC × 100).
# L. monocytogenes EGDe = assay type: cell-based, Listeria monocytogenes; conditions: microtiter plate, Listeria enrichment broth, 37 °C, OD600; lowest concentration inhibiting growth after 18 h
# Experimental: The BCA assay was used according to the manufactures instructions to determine the concentration of the peptides. The MIC of the peptides was determined using a microtiter plate. Briefly, L. monocytogenes EGDe was inoculated into Listeria enrichment broth (LEB) and incubated overnight at 37 °C. The culture was inoculated into fresh LEB and incubated until an OD600 of 0.1 was reached. A series of peptide concentrations was prepared and 50 µL of each added per well, followed by the addition of 150 µL culture. The controls were ddH2O containing 0.1% (v/v) TFA with 150 µL culture or media. Microtiter plates were incubated at 37 °C and OD600 readings were taken at T0, T5 and T18 (hours). The MIC was determined as the lowest peptide concentration required to inhibit the growth of L. monocytogenes EGDe after 18 h.
# HUVEC [2] = experiment: LDH release assay, HUVEC; assay type: cell-based, human; conditions: 24 h
# Experimental: as §1
# HUVEC and Caco-2 cells were exposed to three different concentrations (25 µM, 50 µM and 100 µM) nisin A, plantaricin 423 and bacST4SA and the presence of extracellular LDH determined using the LDH release assay kit. Sterile ultrapure water was used as negative control (referred to as spontaneous LDH activity) and lysis buffer (10X) was used as positive control (referred to as maximum LDH activity). After incubating the cultures in the presence of the peptides for 24 h at 37 °C, culture supernatants were pipetted into a 96-well plate. Reaction mixture was added to the supernatants and plates were incubated at 25 °C for 30 min. Absorbance was measured at 490 nm and 680 nm, respectively. The percentage cytotoxicity was calculated as follows (1):1 %Cytotoxicity=(Compound−treatedLDHactivity)−(SpontaneousLDHactivity)/MaximumLDHactivity−SpontaneousLDHactivity×100
# Caco-2 cells [3] = experiment: XTT viability assay, Caco-2; assay type: cell-based, human; conditions: 24 h, 37 °C
# Experimental: as §1
# Cells were grown in 100 µL of culture medium for 24 h at 37 °C. The bacteriocins were separately added to the cells at concentrations of 25 µM, 50 µM and 100 µM. Sterile ultrapure water was used as control. After 24 h of incubation at 37 °C, the reaction mixture containing PMS (N-methyl-dibenzopyrazine-methylsulfate/phenazine methosulphate) and XTT solution, was added to each well and incubated for 4 h at 37 °C. Absorbance readings were recorded at 450 nm, using a microtiter plate reader. The percentage viability was calculated as AT/AC × 100; where AT is the absorbance of peptide-treated cells and AC is the absorbance of control (untreated cells).
# [4] = Plasma stability assay (loss of antimicrobial activity); assay type: in vitro ADME, human; conditions: 37 °C, 3 days, agar well diffusion vs L. monocytogenes EGDe, zone diameter (ImageJ)
# Experimental: Human blood was collected in tubes with potassium and EDTA as anticoagulant, centrifuged at 500 × g (10 min, 25 °C) and the plasma collected. Different plasma concentrations (0%, 40% and 80%, v/v) were prepared by diluting with sterile ultrapure water. Nisin A, plantaricin 423 and bacST4SA, each suspended in sterile ultrapure water, were added to the plasma to final concentrations of 25 µM, 50 µM and 100 µM, sterile ultrapure water was used as control. Incubation was at 37 °C for 3 days and bacteriocin activity was tested using the agar well diffusion assay. Listeria monocytogenes EGDe was used as target organism. Digital images of the plates were taken after incubation and activity quantified by measuring the diameter of the zones using ImageJ software (version 1.5; https://imagej.nih.gov/ij/).
# HUVEC [5] = experiment: Neutral red viability assay, HUVEC; assay type: cell-based, human; conditions: 24 h, 37 °C
# Experimental: as §1, §2
smiles,measurement,setting,value
"CC(C)C[C@@H]1NC(=O)[C@H](Cc2c[nH]cn2)NC(=O)[C@H](CO)NC(=O)[C@H](C(C)C)NC(=O)[C@H](CO)NC(=O)[C@@H](NC(=O)[C@H](CO)NC(=O)[C@H](Cc2ccccc2)NC(=O)[C@H](C)NC(=O)[C@H](CCC(N)=O)NC(=O)CNC(=O)[C@H](Cc2c[nH]c3ccccc23)NC(=O)[C@H](CC(N)=O)NC(=O)[C@@H](NC(=O)[C@H](CO)NC(=O)[C@@H]2CSSC[C@H](NC(=O)[C@@H](NC(=O)[C@@H](NC(=O)CNC(=O)[C@H](CC(N)=O)NC(=O)CNC(=O)[C@H](Cc3ccc(O)cc3)NC(=O)[C@H](Cc3ccc(O)cc3)NC(=O)[C@@H](N)CCCCN)C(C)C)[C@@H](C)O)C(=O)NCC(=O)N[C@@H](CCCCN)C(=O)N[C@@H](Cc3c[nH]cn3)C(=O)N[C@@H](CO)C(=O)N2)C(C)C)CSSC[C@@H](C(=O)O)NC(=O)[C@H](CCCCN)NC(=O)CNC(=O)[C@H](Cc2c[nH]cn2)NC(=O)CNC(=O)[C@H](Cc2ccccc2)NC(=O)[C@H](CC(N)=O)NC(=O)[C@H](C)NC1=O [plantaricin 423] (H-KYYGNGVTCGKHSCSVNWGQAFSCSVSHLANFGHGKC-OH; disulfide 9-14, 24-37; N-terminus and C-terminus assumed)",cell viability (neutral red),"Caco-2 cells [1]; Caco-2, 25 µM and 50 µM (up to 50 µM)",did not cause significant decreases
same,cell viability (neutral red),"Caco-2 cells [1]; Caco-2, 100 µM",slight reduction
same,MIC,L. monocytogenes EGDe,12 µM
same,cytotoxicity level (LDH release),"HUVEC [2]; 100 µM, 37 °C, percentage of maximum LDH release (lysis buffer = 100%)",21%
same,toxicity (LDH release),HUVEC [2]; concentrations up to 100 µM,minimal toxicity
same,cell viability (XTT),"Caco-2 cells [3]; Caco-2, 25 µM and 50 µM (up to 50 µM), absorbance 450 nm",did not cause significant decreases
same,cell viability (XTT),"Caco-2 cells [3]; Caco-2, 100 µM",slight reduction
same,decrease in antimicrobial activity,"[4]; 40% (v/v) human EDTA plasma in ultrapure water, 25 µM peptide",40%
same,decrease in antimicrobial activity,"[4]; 40% (v/v) human EDTA plasma in ultrapure water, 50 µM peptide",30%
same,decrease in antimicrobial activity,"[4]; 40% (v/v) human EDTA plasma in ultrapure water, 100 µM peptide",17%
same,decrease in antimicrobial activity,"[4]; 80% (v/v) human EDTA plasma in ultrapure water, 25 µM peptide",60%
same,decrease in antimicrobial activity,"[4]; 80% (v/v) human EDTA plasma in ultrapure water, 50 µM peptide",39%
same,decrease in antimicrobial activity,"[4]; 80% (v/v) human EDTA plasma in ultrapure water, 100 µM peptide",29%
same,cell viability (neutral red),HUVEC [5]; 25 µM and 50 µM (up to 50 µM),did not cause significant decreases
same,cell viability (neutral red),HUVEC [5]; 100 µM,slight reduction
